Reference: PMC5708526, “Targeting secondary protein complexes in drug discovery: studying the druggability and chemical biology of the HSP70/BAG1 complex” (Chemical Communications (Cambridge, England), 2017)

Molecular target: T1, TR-HSP72 (aa 3-382) (Homo sapiens, UniProt P0DMV8)
T1 construct: Truncated HSP72-NBD (residues 3 to 382); made in house
Assay: Fluorescence polarisation probe KD determination with truncated HSP72
Format: binding
Procedure: To determine the binding affinity of bisaryl FP-probe 11 for HSP72, increasing concentrations of the protein were titrated against a fixed concentration (10 nM) of the FP-probe. […] We speculated that this decrease in apparent KD was due to the slow hydrolysis of the ATP-probe to ADP-ATTO-488 + Pi. Although HSP72 has low intrinsic ATPase activity,[8] the high enzyme concentration could catalyse hydrolysis over the time-frame of the assay, with the initial KD values reflective of the known modest affinity of ATP for HSP70, whilst the final KD value was consistent with the higher affinity ADP ligand.[14] […]
TRIS Tris(hydroxymethyl)aminomethane
General Information: Unless otherwise stated the aqueous assay buffer contained 50 mM TRIS base pH 7.4, 150 mM NaCl, 6 mM MgCl2, 1 mM DTT, 0.1% (wt/wt) CHAPS. The assay was conducted using 384 Plus F ProxiPlates (PerkinElmer) with a final assay volume of 10 μL. Plates were centrifuged at 1000 rpm for 1 minute prior to incubation and read using an 2103 Envision Multilable Plate Reader. Excitation and emission wavelengths used for green probes were 480 nm and 535 nm, respectively.
Fluorescence polarisation was measured in units of millipolarization (mP). […] Data were plotted and analysed using GraphPad Prism 6, graphical data represents the mean ± standard error of the mean for a single representative experiment. […]

T1 sequence (P0DMV8 3-382): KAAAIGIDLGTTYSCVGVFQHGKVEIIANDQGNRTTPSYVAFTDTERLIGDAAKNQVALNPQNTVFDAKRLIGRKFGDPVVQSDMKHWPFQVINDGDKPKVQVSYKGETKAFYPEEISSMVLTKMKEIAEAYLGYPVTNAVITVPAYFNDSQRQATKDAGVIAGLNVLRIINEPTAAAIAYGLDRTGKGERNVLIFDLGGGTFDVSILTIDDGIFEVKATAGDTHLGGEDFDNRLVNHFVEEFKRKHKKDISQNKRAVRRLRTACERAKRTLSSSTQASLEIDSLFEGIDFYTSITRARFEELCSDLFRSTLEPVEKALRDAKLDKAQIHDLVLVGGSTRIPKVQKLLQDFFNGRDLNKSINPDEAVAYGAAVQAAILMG

CN(CCCC(=O)NCCCCCCNc1ncnc2c1nc(NCc1ccc3ncccc3c1)n2[C@@H]1O[C@H](COCc2ccc(C(F)(F)F)cc2)[C@@H](O)[C@H]1O)C(=O)c1ccccc1-c1c2ccc(=N)c(S(=O)(=O)O)c-2oc2c(S(=O)(=O)O)c(N)ccc12 [compound 11]
Kd: 50 nM
pKD: 7.32
